Measurements taken from US9248162B2, “Factor H for treatment of rheumatoid arthritis” (Baxter International Inc., priority 2013, dated 2016).
Several values for one entry are separate records, joined by “and”; a condition that tells them apart may be missing. Identical values can stand only once. Entries after “also recorded” stand apart in the source; their conditions may differ.

Legend:
[1] = system: collagen antibody-induced arthritis; test: Mouse CAIA: ankle histology scores (H & E); type: in vivo, Balb C mice; parameters: key: 0: normal; 1: minimal infiltration of pannus in cartilage and subchondral bone; 2: mild infiltration; 3: moderate infiltration; 4: marked infiltration; 5: severe infiltration; conditions: individual animal
Experimental: (§1) Balb C mice (n=10 per cohort) were used to determine the efficacy of Factor H (FH) during […]. The mice were treated with ArthritoMAb (anti-collagen) antibody cocktail (2 mg, i.v.) on day 1, followed 7 days later with an injection of LPS (50 μg, i.p.). On day 8, hind paw volumes were measured for each animal and distributed to various treatment groups.
(§2) Dosing with the different agents was started on day 8 as described in Table 3.
(§3) Hind paw volumes were measured on day 8, 11, 12, 13, 15, 19 and 22 (endpoint). The age at start date was 7 to 9 weeks. Body weights were measured bi-weekly to the endpoint (Table 4). At the endpoint, tissue samples were processed for histology and submitted to a pathologist for independent analysis. Sampling 1 was performed at the endpoint. The hind limbs were preserved in 10% formalin. Sampling 2 was performed at the endpoint for group 4 animals. Blood was collected by terminal cardiac puncture. The blood was processed for anti-coagulant. The kidneys were additionally preserved in formalin and followed with 70% EtOH. Samples were scored for inflammation, pannus (granulation tissue), cartilage damage, bone resorption and exostosis (Table 5).

[2] = system: collagen antibody-induced arthritis; test: Mouse CAIA: clinical score; type: in vivo, Balb C mice; parameters: key to Clinical Score, Summary (significance): ns: = not significant; *: = P < 0.05; **: = P < 0.01; ***: = P < 0.001; conditions: for Clinical Score, Difference in rank sum / Clinical Score, Summary (significance): Vehicle vs agent, Dunn's Multiple Comparison Test; for Max Clin Score, Mean / Clinical Score, Day of Study 8, Mean / Clinical Score, Day of Study 11, Mean / Clinical Score, Day of Study 12, Mean / Clinical Score, Day of Study 13, Mean / Clinical Score, Day of Study 16, Mean / Clinical Score, Day of Study 19, Mean / Clinical Score, Day of Study 22, Mean: group mean; for Max Clin Score, Mean / Clinical Score, Day of Study 8, Mean / Clinical Score, Day of Study 11, Mean / Clinical Score, Day of Study 12, Mean / Clinical Score, Day of Study 13, Mean / Clinical Score, Day of Study 16, Mean / Clinical Score, Day of Study 19, Mean / Clinical Score, Day of Study 22, Mean / Day (of Max Clin Score), Mean: n=10; for Clinical Score, Day of Study 8, Mean / Clinical Score, Day of Study 8: day 8 (start of dosing); for Clinical Score, Day of Study 11, Mean / Clinical Score, Day of Study 11: day 11; for Clinical Score, Day of Study 12, Mean / Clinical Score, Day of Study 12: day 12; for Clinical Score, Day of Study 13, Mean / Clinical Score, Day of Study 13: day 13; for Clinical Score, Day of Study 16, Mean / Clinical Score, Day of Study 16: day 16 (Jul. 1, 2011); for Clinical Score, Day of Study 19, Mean / Clinical Score, Day of Study 19: day 19; for Clinical Score, Day of Study 22, Mean / Clinical Score, Day of Study 22: day 22 (endpoint); for Day (of Max Clin Score) / Max Clin Score / Clinical Score, Day of Study 8 / Clinical Score, Day of Study 11 / Clinical Score, Day of Study 12 / Clinical Score, Day of Study 13 / Clinical Score, Day of Study 16 / Clinical Score, Day of Study 19 / Clinical Score, Day of Study 22: individual animal; for Day (of Max Clin Score) / Day (of Max Clin Score), Mean: day of study; for Max Clin Score: maximum over days 8 to 22; for Clinical Score, Day of Study 8 / Clinical Score, Day of Study 11 / Clinical Score, Day of Study 12 / Clinical Score, Day of Study 13 / Clinical Score, Day of Study 16 / Clinical Score, Day of Study 19 / Clinical Score, Day of Study 22: score 0-60; for Day (of Max Clin Score), Mean: listed as 'Mean'; for Mean Maximum Clinical Score: scored from 0 to 60 (15/limb), sum of 4 limbs, vehicle 45.4
Experimental: The mice were treated with ArthritoMAb (anti-collagen) antibody cocktail (2 mg, i.v.) on day 1, followed 7 days later with an injection of LPS (50 μg, i.p.). On day 8, hind paw volumes were measured for each animal and distributed to various treatment groups.
Factor H was formulated in 20 mM Citrate, 150 mM NaCl, pH=6. […] Ethanercept was formulated as Enbrel™ in saline. Vehicle was formulated in 20 mM Citrate, 150 mM NaCl, pH=6. […] The dosing volume for Factor H and BX12 was 25 mL/kg (0.500 mL/20 g mouse) and adjusted accordingly for body weight.
as §2

[3] = Mouse CAIA: body weight and tolerability; type: in vivo, Balb C mice
Experimental: as §1, §2, §3

[4] = system: C3H kidneys grafted into pre-sensitized recipients; test: Pre-sensitized mouse kidney allograft model, CFH with or without FK506, creatinine (Example 1); type: in vivo, C57BL/6 (B6) mice
From the text: Male C3H (H-2k) and C57BL/6 (B6, H-2b) mice (25-30 g) were used to determine the efficacy of Complement Factor H (CFH) during transplant rejection. C3H mice served as skin graft and kidney donors for pre-sensitization and kidney transplantation. Male C57BL/c (B6) mice were used as recipients. The B6 recipients were pre-sensitized by transplantation of the donor skin grafts, and were subsequently transplanted with kidney allografts between 15 and 20 days after the skin transplantation. B6 mice were treated with vehicle (controls), CFH (day −1, day 0, then every other day to day 10; 8 mg/mouse, i.p.), FK506 (daily from day −1 to day 10; 1 mg/kg s.c.) or the combination of CFH+FK506 using the same dosage regime as the single treatments. Mice were monitored daily for signs of rejection. Renal function was monitored by measuring serum creatinine levels.

[5] = system: pre-sensitized kidney transplants; test: Early phase kidney allograft histology, HE staining (Example 3); type: in vivo, C57BL/6 (B6) mice; conditions: result in words; POD5 (FIG. 6B)
Experimental: The effect of CFH with or without Adrenomedullin (AM) on kidney graft function, antibody response, and histology was determined following the early phase of transplantation (POD3 and POD5). The pre-sensitized kidney transplants were treated with CFH (8 mg, i.p.) on day −1, day 0 and then every other day. To test whether AM provides additional benefits to renal graft function, an additional group of transplants were treated with a single dose infusion (200 μl, i.v.) of AM (˜100 ug/kg) mixed with CFH (˜1 mg/kg) immediately following the transplant surgery (POD0), in addition to the i.p. injection of CFH (day-1, 0, and every other day).
All mice were sacrificed on POD3 and 5, respectively (˜5/ea). Untreated transplants sacrificed at the same endpoints were used as controls. Graft tissues were harvested for histology and immune-histochemistry (IHC). The experimental groups were as follows: 1) C3H to B6 txs+pre-sensitization+control; 2) C3H to B6 txs+pre-sensitization+CFH (i.p.); and 3) C3H to B6 txs+pre-sensitization+CFH (i.p.)+AM/CFH infusion (at time of transplant).

Substance: Etanercept
- Score From H & E: Pannus ([1]; score 0-5, endpoint day 22, listed as Group 3): 4
- Clinical Score, Difference in rank sum [2]: 3.55
- Clinical Score, Summary (significance) [2]: ns
- Max Clin Score, Mean [2]: 39.60
- Clinical Score, Day of Study 8, Mean [2]: 5.50
- Clinical Score, Day of Study 11, Mean [2]: 19.60
- Clinical Score, Day of Study 12, Mean [2]: 37.10
- Clinical Score, Day of Study 13, Mean [2]: 35.50
- Clinical Score, Day of Study 16, Mean [2]: 31.50
- Clinical Score, Day of Study 19, Mean [2]: 28.40
- Clinical Score, Day of Study 22, Mean [2]: 25.70
- Day (of Max Clin Score) [2]: 12 (8×) and 22 and 16
- Max Clin Score [2]: 32 and 50 (2×) and 45 and 46 and 35 and 30 and 20 and 34 and 52
- Clinical Score, Day of Study 8 [2]: 0 (5×) and 15 and 10 (4×)
- Clinical Score, Day of Study 11 [2]: 12 (2×) and 34 and 28 and 4 and 15 and 43 and 11 and 10 and 27
- Clinical Score, Day of Study 12 [2]: 32 and 50 (2×) and 45 and 27 and 35 and 26 and 20 and 34 and 52
- Clinical Score, Day of Study 13 [2]: 32 and 50 and 45 (2×) and 21 and 35 and 30 and 15 and 34 and 48
- Clinical Score, Day of Study 16 [2]: 32 and 49 and 21 and 48 and 25 and 45 and 15 and 10 and 24 and 46
- Clinical Score, Day of Study 19 [2]: 32 and 48 and 34 and 25 and 5 and 45 and 20 and 10 and 26 and 37
- Clinical Score, Day of Study 22 [2]: 32 and 41 and 34 and 16 (2×) and 40 and 19 and 10 and 23 and 26
- Day (of Max Clin Score), Mean [2]: 12.00
- Mean Maximum Clinical Score [2]: 39.6^ns
- Mean Body Weigh at Nadir ([3]; mouse, in vivo): −5.7%

Substance: Factor H
- Score From H & E: Pannus ([1]; score 0-5, endpoint day 22, listed as Group 4): 1 (4×) and 3
- plasma Cr levels ([4]; POD7, CFH 8 mg/mouse i.p., controls 1.9±0.1): 1.4 ± 0.2 mg/dL
- renal allograft function ([4]; result in words, creatinine on POD7 (FIG. 2)): improving renal allograft function
- Clinical Score, Difference in rank sum [2]: 8.3
- Clinical Score, Summary (significance) [2]: ns
- Max Clin Score, Mean [2]: 33.40
- Clinical Score, Day of Study 8, Mean [2]: 3.00
- Clinical Score, Day of Study 11, Mean [2]: 14.60
- Clinical Score, Day of Study 12, Mean [2]: 33.40
- Clinical Score, Day of Study 13, Mean [2]: 23.60
- Clinical Score, Day of Study 16, Mean [2]: 16.90
- Clinical Score, Day of Study 19, Mean [2]: 18.20
- Clinical Score, Day of Study 22, Mean [2]: 18.80
- Day (of Max Clin Score) [2]: 12
- Max Clin Score ([2]; listed as BX12): 37 and 42 (2×) and 20 and 21 and 49 and 30 and 32 and 16 and 45
- Clinical Score, Day of Study 8 ([2]; listed as BX12): 5 (3×) and 0 (6×) and 15
- Clinical Score, Day of Study 11 ([2]; listed as BX12): 25 and 10 (2×) and 15 (2×) and 5 and 18 and 21 (2×) and 6
- Clinical Score, Day of Study 12 ([2]; listed as BX12): 37 and 42 (2×) and 20 and 21 and 49 and 30 and 32 and 16 and 45
- Clinical Score, Day of Study 13 ([2]; listed as BX12): 18 and 37 and 34 and 20 (2×) and 10 and 40 and 26 and 15 and 16
- Clinical Score, Day of Study 16 ([2]; listed as BX12): 13 and 21 and 15 (2×) and 10 and 1 and 43 and 25 and 6 and 20
- Clinical Score, Day of Study 19 ([2]; listed as BX12): 25 and 31 and 20 (2×) and 10 (3×) and 0 and 46 and 7
- Clinical Score, Day of Study 22 ([2]; listed as BX12): 24 and 31 and 21 and 10 and 1 and 39 and 15 and 26 and 5 and 16
- Day (of Max Clin Score), Mean [2]: 12.00
- clinical response / clinical score ([2]; result in words (Tables 6 and 7, FIG. 10), listed as FH): improved clinical response compared to vehicle control animals; also recorded: improves more over Etanercept at later time points (days 15 to 22); also recorded: lower clinical score compared to both vehicle and Etanercept
- Mean Maximum Clinical Score [2]: 33.4^ns
- kidney graft morphology (HE staining) [5]: improved morphology with less tubular necrosis on POD5
- Mean Body Weigh at Nadir ([3]; mouse, in vivo): −7.4%
- body weights vs. vehicle controls ([3]; mouse, in vivo): comparable to vehicle controls
- treatment-related deaths ([3]; result in words, FH 440 mg/kg i.p. qodx7): no treatment-related deaths
